# In patent publication US7563567B1, “Use of ECIST microarrays in an integrated method for assessing DNA methylation, gene expression and histone acetylation” (The Curators of the Univeristy of Missouri of Columbia, priority 2002, dated 2009):
# Columns and labels:
# MDA-MB-231 cells [1] = assay: ECIST expression microarray, deoxyC-treated vs untreated cells; type: cell-based, human
# CP70 cells [2] = assay: Expression microarray analysis (ECIST panel, triple analysis); type: cell-based, human; conditions: for number of Group 1 (hypermethylated) loci with increased expression: FIG. 20D; for percent of ECIST loci up-regulated 4-fold or greater / total number of ECISTs up-regulated 4-fold or greater: of 1507 loci, DAC 0.5 μM 4 days, TSA 0.5 μM 12 h
# CP70 cells [3] = assay: Semi-quantitative RT-PCR; type: cell-based, human; conditions: for HSPA.2 expression (RT-PCR): FIG. 21 row 1, no expression in untreated cells; for expression of eight Group 2 loci (RT-PCR): FIGS. 22A, 22B, unmethylated loci
# BIK gene = conditions: cited from earlier work
# MDA-MB-231 cells [4] = assay: RT-PCR verification of ECIST loci responsive to demethylation; type: cell-based, human
# [5] = 0.75 μM, 4 days, among 1,162 ECISTs
# [6] = average normalized ratio, 0.75 μM treated vs untreated
compound,measurement,setting,value
"Nc1ncn([C@H]2C[C@H](O)[C@@H](CO)O2)c(=O)n1 [DAC, 5-aza-2′-deoxycytidine]",number of hypermethylated ECIST loci whose transcripts can be reactivated,MDA-MB-231 cells [1]; 0.75 μM,30
same,number of hypermethylated ECIST loci whose transcripts could not be reactivated (or up-regulated),MDA-MB-231 cells [1]; 0.75 μM,189
same,number of loci up-regulated in response to demethylation but not associated with CpG island hypermethylation,MDA-MB-231 cells [1]; 0.75 μM,96
same,down-regulated ECIST loci (SAM analysis),MDA-MB-231 cells [1]; [5],No down-regulated loci were identified
same,"number of statistically significant up-regulated ECIST loci (SAM, false-positive rate 1%)",MDA-MB-231 cells [1]; [5],126
same,"Cy5/Cy3 Expression, CpG5B6 (CYP27B1)",MDA-MB-231 cells [1]; [6],2.7
same,"Cy5/Cy3 Expression, CpG6B6 (dJ631M13.5)",MDA-MB-231 cells [1]; [6],2.6
same,"Cy5/Cy3 Expression, CpG15E2",MDA-MB-231 cells [1]; [6],3.3
same,"Cy5/Cy3 Expression, CpG21G11",MDA-MB-231 cells [1]; [6],2.9
same,"Cy5/Cy3 Expression, CpG32H12",MDA-MB-231 cells [1]; [6],2.6
same,"Cy5/Cy3 Expression, CpG65A1 (TNS)",MDA-MB-231 cells [1]; [6],4.3
same,"Cy5/Cy3 Expression, CpG65C10 (TBX4)",MDA-MB-231 cells [1]; [6],4.7
same,"Cy5/Cy3 Expression, DL2F9 (ERCC-1)",MDA-MB-231 cells [1]; [6],3.8
same,"Cy5/Cy3 Expression, MP1F6 (LOC84661)",MDA-MB-231 cells [1]; [6],2.1
same,"Cy5/Cy3 Expression, MP2F1 (H4FJ)",MDA-MB-231 cells [1]; [6],3.2
same,"Cy5/Cy3 Expression, MP2F10",MDA-MB-231 cells [1]; [6],3.2
same,"Cy5/Cy3 Expression, PY1H8 (PSMB4)",MDA-MB-231 cells [1]; [6],2.1
same,"Cy5/Cy3 Expression, PY2F1 (FLJ10466)",MDA-MB-231 cells [1]; [6],3.2
same,"Cy5/Cy3 Expression, PY3D3 (EST AI023535)",MDA-MB-231 cells [1]; [6],2.4
same,"Cy5/Cy3 Expression, PY3D6 (EST BI518683)",MDA-MB-231 cells [1]; [6],2.0
same,"Cy5/Cy3 Expression, PY3F2 (HSRN04)",MDA-MB-231 cells [1]; [6],2.0
same,"Cy5/Cy3 Expression, SC2C3 (EST BE502068)",MDA-MB-231 cells [1]; [6],4.9
same,"Cy5/Cy3 Expression, SC8F2 (RPS16)",MDA-MB-231 cells [1]; [6],2.0
same,"Cy5/Cy3 Expression, SC12A2 (SAAS)",MDA-MB-231 cells [1]; [6],2.2
same,"Cy5/Cy3 Expression, SC13D6 (EST183864)",MDA-MB-231 cells [1]; [6],2.1
same,"Cy5/Cy3 Expression, SC15E7",MDA-MB-231 cells [1]; [6],4.0
same,"Cy5/Cy3 Expression, SC15H6 (H2BFR)",MDA-MB-231 cells [1]; [6],2.6
same,"Cy5/Cy3 Expression, SC19F1 (EST BE838797)",MDA-MB-231 cells [1]; [6],2.7
same,"Cy5/Cy3 Expression, SC20G3 (HOXD3)",MDA-MB-231 cells [1]; [6],2.3
same,"Cy5/Cy3 Expression, SC21A8 (U3B2)",MDA-MB-231 cells [1]; [6],3.2
same,"Cy5/Cy3 Expression, SC21G11 (HSPA2)",MDA-MB-231 cells [1]; [6],5.4
same,"Cy5/Cy3 Expression, SC40C8 (H2BFG)",MDA-MB-231 cells [1]; [6],2.7
same,"Cy5/Cy3 Expression, SC77F6 (TTF-1)",MDA-MB-231 cells [1]; [6],3.8
same,"Cy5/Cy3 Expression, SC87E7 (EST AA365852)",MDA-MB-231 cells [1]; [6],2.4
same,"Cy5/Cy3 Expression, SC89F2 (HAGE)",MDA-MB-231 cells [1]; [6],14.6
same,expression of Group 2a genes (unmethylated promoters),CP70 cells [2],not by DAC alone
same,number of Group 1 (hypermethylated) loci with increased expression,CP70 cells [2],11
same,percent of ECIST loci up-regulated 4-fold or greater,CP70 cells [2],1.9%
same,total number of ECISTs up-regulated 4-fold or greater,CP70 cells [2],29
same,HSPA.2 expression (RT-PCR),CP70 cells [3],increased
same,expression of eight Group 2 loci (RT-PCR),CP70 cells [3],Increased expression of some of these loci
same,time by which BIK expression returned to control levels,"BIK gene; human lung cancer cell line, after treatment",≤ 72 h
same,induction of the apoptosis promoting factor BIK,BIK gene; human lung cancer cell line,early induction
same,"expression of CYP27B1, HSPA2, TTF-1, FLJ10466 and EST183864 by RT-PCR","MDA-MB-231 cells [4]; 0.75 μM treated vs untreated, FIG. 17A",reactivated
same,"expression levels of CpG12F10, MP2A3 and MP3D7 by RT-PCR","MDA-MB-231 cells [4]; treated relative to untreated cells, loci not hypermethylated, FIG. 17B",increased
"CC(/C=C/C(=O)NO)=C\[C@@H](C)C(=O)c1ccc(N(C)C)cc1 [TSA, trichostatin A]",expression of Group 2a genes (unmethylated promoters),CP70 cells [2],increased expression
same,number of Group 1 (hypermethylated) loci with increased expression,CP70 cells [2],No significant change in expression
same,percent of ECIST loci up-regulated 4-fold or greater,CP70 cells [2],1.1%
same,total number of ECISTs up-regulated 4-fold or greater,CP70 cells [2],17
same,HSPA.2 expression (RT-PCR),CP70 cells [3],remained unchanged
same,expression of eight Group 2 loci (RT-PCR),CP70 cells [3],Increased expression of some of these loci
same,induction of the BIK gene,"BIK gene; Suzuki et al., cell line not stated",induced in a methylation-independent manner
